According to article PMC3166015 (Emerging Infectious Diseases, 2011):

Target: NA activity of oseltamivir-resistant (OR, H275Y) pandemic (H1N1) 2009 virus (Influenza A virus, UniProt C3W5S3, H275Y)
Assay type: biochemical

Row | SMILES | susceptibility by NA inhibition assay | peramivir susceptibility
1 | CC(=O)N[C@H]1[C@H]([C@H](O)[C@H](O)CO)OC(C(=O)O)=C[C@@H]1N=C(N)N [Zanamivir, zanamivir] | sensitive | 
2 | CCC(CC)[C@H](NC(C)=O)[C@@H]1[C@H](O)[C@@H](C(=O)O)C[C@H]1N=C(N)N [peramivir] |  | cross-resistance
